Source: the NIST ThermoML archive (doi:10.1021/je050052+)

Assay: excess molar enthalpy (molar enthalpy of mixing); xn = mol fraction of the nth substance listed
Details: Liquid, Flow calorimetry

COC(=O)OC [dimethyl carbonate] + CCCO
Details	excess molar enthalpy [kcal/mol]
298.15 K, 1000 kPa, x1 = 0.05	0.108
298.15 K, 1000 kPa, x1 = 0.1	0.2025
298.15 K, 1000 kPa, x1 = 0.15	0.2782
298.15 K, 1000 kPa, x1 = 0.2	0.3401
298.15 K, 1000 kPa, x1 = 0.25	0.3833
298.15 K, 1000 kPa, x1 = 0.3	0.4194
298.15 K, 1000 kPa, x1 = 0.35	0.447
298.15 K, 1000 kPa, x1 = 0.4	0.4608
298.15 K, 1000 kPa, x1 = 0.45	0.4692
298.15 K, 1000 kPa, x1 = 0.5	0.4679
298.15 K, 1000 kPa, x1 = 0.55	0.4588
298.15 K, 1000 kPa, x1 = 0.6	0.4437
298.15 K, 1000 kPa, x1 = 0.65	0.4199
298.15 K, 1000 kPa, x1 = 0.7	0.3883
298.15 K, 1000 kPa, x1 = 0.75	0.3492
298.15 K, 1000 kPa, x1 = 0.8	0.2996
298.15 K, 1000 kPa, x1 = 0.85	0.2396
298.15 K, 1000 kPa, x1 = 0.9515	0.0831
313.15 K, 1000 kPa, x1 = 0.0485	0.1015
313.15 K, 1000 kPa, x1 = 0.1002	0.2101
313.15 K, 1000 kPa, x1 = 0.1512	0.2976
313.15 K, 1000 kPa, x1 = 0.2017	0.3682
313.15 K, 1000 kPa, x1 = 0.2516	0.4232
313.15 K, 1000 kPa, x1 = 0.3009	0.4634
313.15 K, 1000 kPa, x1 = 0.3497	0.4921
313.15 K, 1000 kPa, x1 = 0.4014	0.5134
313.15 K, 1000 kPa, x1 = 0.449	0.5231
313.15 K, 1000 kPa, x1 = 0.4995	0.5234
313.15 K, 1000 kPa, x1 = 0.5494	0.5136
313.15 K, 1000 kPa, x1 = 0.5987	0.4971
313.15 K, 1000 kPa, x1 = 0.6506	0.4702
313.15 K, 1000 kPa, x1 = 0.6988	0.4383
313.15 K, 1000 kPa, x1 = 0.7495	0.3945
313.15 K, 1000 kPa, x1 = 0.8491	0.2714
313.15 K, 1000 kPa, x1 = 0.901	0.1899
313.15 K, 1000 kPa, x1 = 0.9493	0.0957
313.15 K, 10000 kPa, x1 = 0.0482	0.1172
313.15 K, 10000 kPa, x1 = 0.0996	0.2233
313.15 K, 10000 kPa, x1 = 0.1504	0.3101
313.15 K, 10000 kPa, x1 = 0.2007	0.3795
313.15 K, 10000 kPa, x1 = 0.2505	0.4328
313.15 K, 10000 kPa, x1 = 0.2997	0.4731
313.15 K, 10000 kPa, x1 = 0.3483	0.502
313.15 K, 10000 kPa, x1 = 0.3999	0.5218
313.15 K, 10000 kPa, x1 = 0.4509	0.5315
313.15 K, 10000 kPa, x1 = 0.5013	0.5316
313.15 K, 10000 kPa, x1 = 0.5512	0.5228
313.15 K, 10000 kPa, x1 = 0.6005	0.5047
313.15 K, 10000 kPa, x1 = 0.6493	0.4798
313.15 K, 10000 kPa, x1 = 0.7007	0.4413
313.15 K, 10000 kPa, x1 = 0.7515	0.3942
313.15 K, 10000 kPa, x1 = 0.8514	0.2719
313.15 K, 10000 kPa, x1 = 0.9005	0.1934
313.15 K, 10000 kPa, x1 = 0.949	0.09892
328.15 K, 1000 kPa, x1 = 0.05	0.1178
328.15 K, 1000 kPa, x1 = 0.1	0.2285
328.15 K, 1000 kPa, x1 = 0.15	0.3207
328.15 K, 1000 kPa, x1 = 0.2	0.3941
328.15 K, 1000 kPa, x1 = 0.25	0.4542
328.15 K, 1000 kPa, x1 = 0.3	0.4986
328.15 K, 1000 kPa, x1 = 0.35	0.5304
328.15 K, 1000 kPa, x1 = 0.4	0.553
328.15 K, 1000 kPa, x1 = 0.45	0.5666
328.15 K, 1000 kPa, x1 = 0.5	0.5671
328.15 K, 1000 kPa, x1 = 0.55	0.5597
328.15 K, 1000 kPa, x1 = 0.6	0.5432
328.15 K, 1000 kPa, x1 = 0.65	0.5174
328.15 K, 1000 kPa, x1 = 0.7	0.4791
328.15 K, 1000 kPa, x1 = 0.75	0.4296
328.15 K, 1000 kPa, x1 = 0.85	0.2956
328.15 K, 1000 kPa, x1 = 0.9	0.2109
328.15 K, 1000 kPa, x1 = 0.95	0.1065
